According to US10858369B2, “Pseudopolymorphic forms of a HIV protease inhibitor” (Janssen Sciences Ireland Unlimited Company, priority 2002, dated 2020):
≈ marks a conversion by molar mass, not a printed value.

What was measured:
[1] = Fractions of Form B characterized with TG, DSC and IR; type: physicochemical; parameters: key to IR: ~Hydrate, Ref: ~hydrate, Ref: identical with reference
From the text: Different fractions of Form B were characterized with thermogravimetry (TG), differential scanning calorimetry (DSC) and infrared spectroscopy (IR).

[2] = Aqueous solubility in solvents with different pH (excess solute equilibrated at 20° C., UV spectrometry); type: physicochemical
Experimental: Further solubility investigations were performed in function of pH. […] An excess of the solute was equilibrated with the solvent at 20° C. for at least 24 hours. After removing the undissolved compound, the concentration in solution was determined using UV spectrometry.
Aqueous solubilities of Form B were measured in solvents with different pH. An excess of the solute was equilibrated with the solvent at 20° C. for at least 24 hours. After removing the undissolved compound, the concentration in solution was determined using UV spectrometry.
Aqueous solubilities of Form K were measured in solvents with different pH. An excess of the solute was equilibrated with the solvent at 20° C. for at least 48 hours. After removing the undissolved compound, the concentration in solution was determined using UV spectrometry.

[3] = Thermogravimetry of Form A, before and after Adsorption/Desorption tests, and at 25° C. under dry nitrogen; type: physicochemical
Experimental: The TG curve was recorded on a TA Instrument Hi-Res TGA 2950 thermogravimeter at the following conditions:
initial temperature: room temperature
final condition: 300° C. or <80[(w/w) %]
The loss of weight at temperatures up to 80° C. is mainly due to the evaporation of solvent (water) present in the sample. The loss of weight at temperatures above 80° C. is mainly due to the evaporation of solvent (ethanolate) present in the sample.
The loss of weight at 25° C. after 10 hours was around 0.6%. This was due to the evaporation of solvent.

[4] = Randomized, placebo-controlled, double-blind, multiple dose escalation trial: safety, tolerability and pharmacokinetics after oral administration
[5] = Adsorption-Desorption tests (vapor sorption, weight change with respect to atmospheric humidity, 25° C.); type: physicochemical
Experimental: drying temperature: 40° C.
equilibrium: ≤0.05% in 5 min. or 60 min.
data interval: 0.05% or 2 min.
At the drying step about 0.6% weight loss was registered.
About 21 mg of Form K were transferred into a VTI vapor sorption analyzer model SGA100 and the weight change with respect to the atmospheric humidity was recorded at the following conditions:
drying temperature: 30° C.
data interval: 0.05% or 2.0 min.
Form K is hygroscopic. […] Form K adsorbed up to 1.5% water at high relative humidity.
A different study of the adsorption and desorption of water by Form K at 25° C. at different conditions of relative humidity was investigated on an amount of about 18 mg of the mesylate solvate. The weight change as a function of relative humidity was registered.

[6] = Adsorption-Desorption Hydratation Tests; type: physicochemical; conditions: 25° C., RH cycle repeated 11 times
Experimental: equilibrium: ≤0.0005% in 5 min. or 90 min.
data interval: 0.05% or 2 min
cycle RH (%) adsorption/desorption: 5.95 repeat the cycle 11 times
At the end of this test a loss of weight of 5.2% was registered. […] The ADS/DES hydratation test curves are collected in FIG. 19.

[7] = Solubility in function of HPβCD (hydroxpropyl-β-cyclodextrin); type: physicochemical; conditions: 2 days at 20° C.
Experimental: An excess of product was equilibrated with the solvent during 2 days at 20° C. After removing the undissolved compound, the concentration in solution was determined using UV spectrometry.

[8] = Approximate solubility in different solvents at approximate 23° C.; type: physicochemical; conditions: thermodynamic from solid
[9] = initial drying step (drying temperature 40° C. Form A, 30° C. Form K)
[10] = different study, about 18 mg, 25° C., FIG. 26

With `CC(C)CN(C[C@@H](O)[C@H](Cc1ccccc1)NC(=O)OC1CO[C@H]2OCC[C@@H]12)S(=O)(=O)c1ccc(N)cc1` (single isomer, unassigned) [Form B fraction 1] the IR ([1]; after ADS/DES) was “±Hydrate,”, the “TG % weight change <100° C.” value ([1]; after ADS/DES) was 4.30% and the “DSC Max (° C.)” value ([1]; fraction as such) was 69.1 °C. The IR ([1]; fraction as such) was “Hydrate, Ref” and the “TG % weight change <100° C.” value ([1]; fraction as such) was 5.65%.

For `CC(C)CN(C[C@@H](O)[C@H](Cc1ccccc1)NC(=O)OC1CO[C@H]2OCC[C@@H]12)S(=O)(=O)c1ccc(N)cc1` (single isomer, unassigned) [Form B fraction 2], the “DSC Max (° C.)” value ([1]; after 5 d 40° C./75% RH) was 74.1 °C, the IR ([1]; after 5 d 40° C./75% RH) was “~Hydrate, Ref” and the “TG % weight change <100° C.” value ([1]; after 5 d 40° C./75% RH) was 3.56%. The “DSC Max (° C.)” value ([1]; fraction as such) was 75.6 °C, the IR ([1]; fraction as such) was “~Hydrate, Ref” and the “TG % weight change <100° C.” value ([1]; fraction as such) was 5.91%.

For `CC(C)CN(C[C@@H](O)[C@H](Cc1ccccc1)NC(=O)OC1CO[C@H]2OCC[C@@H]12)S(=O)(=O)c1ccc(N)cc1` (single isomer, unassigned) [Form B fraction 3], the “DSC Extra (° C.)” value ([1]; after 5 d 40° C./75% RH) was 62.8 °C, the “DSC Max (° C.)” value ([1]; after 5 d 40° C./75% RH) was 77.4 °C and the IR ([1]; after 5 d 40° C./75% RH) was “±Hydrate,”. The “TG % weight change <100° C.” value ([1]; after 5 d 40° C./75% RH) was 2.33%, the “DSC Extra (° C.)” value ([1]; fraction as such) was 67.8 °C and the “DSC Max (° C.)” value ([1]; fraction as such) was 77.0 °C. For the same molecule, the IR ([1]; fraction as such) was “±Hydrate,” and the “TG % weight change <100° C.” value ([1]; fraction as such) was 3.13%.

For `CC(C)CN(C[C@@H](O)[C@H](Cc1ccccc1)NC(=O)O[C@H]1CO[C@H]2OCC[C@H]21)S(=O)(=O)c1ccc(N)cc1` [Form A, (3R,3aS,6aR)-hexahydrofuro [2,3-b] furan-3-yl (1S,2R)-3-[[(4-aminophenyl)sulfonyl] (isobutyl)amino]-1-benzyl-2-hydroxypropylcarbamate], the solubility ([2]; Water (pH 5.9), at least 24 hours) was 16 (pH 5.9) mg/100 ml solution, the solubility thermodynamic ([2]; pH 0.2, aqueous buffer, 1.0N HCl (pH 0.2), at least 24 hours) was 6200 µg/mL (≈ 11.3 mM) and the solubility thermodynamic ([2]; pH 1.1, aqueous buffer, 0.1N HCl (pH 1.1), at least 24 hours) was 830 µg/mL (≈ 1.52 mM). It also gave a solubility thermodynamic ([2]; pH 2, aqueous buffer, Buffer pH 2 (citrate/HCl) (pH 2.0), at least 24 hours) of 180 µg/mL (≈ 0.329 mM), a solubility thermodynamic ([2]; pH 2.1, aqueous buffer, 0.01N HCl (pH 2.1), at least 24 hours) of 180 µg/mL (≈ 0.329 mM) and a solubility thermodynamic ([2]; pH 3, aqueous buffer, Buffer pH 3 (citrate/HCl) (pH 3.0), at least 24 hours) of 100 µg/mL (≈ 0.183 mM). For the same molecule, the solubility thermodynamic ([2]; pH 4, aqueous buffer, Buffer pH 4 (citrate/HCl) (pH 4.0), at least 24 hours) was 90 µg/mL (≈ 0.164 mM), the “loss of weight (TG)” value ([3]; 25° C. under dry nitrogen atmosphere, after 10 hours) was “around 0.6%” and the “TG (% weight change) >80° C.” value ([3]; Form A as such) was 7.1%. The “TG (% weight change) Up to 80° C.” value ([3]; Form A as such) was 0.3%, the “TG (% weight change) >80° C.” value ([3]; after A/D hydratation test) was 0.5% and the “TG (% weight change) Up to 80° C.” value ([3]; after A/D hydratation test) was 5.4%. For the same molecule, the “TG (% weight change) >80° C.” value ([3]; after ADS/DES) was 4.0%, the “TG (% weight change) Up to 80° C.” value ([3]; after ADS/DES) was 2.9% and the “unchanged Form A excreted in the urine” value ([4]; all dose levels) was “Less than 2%”. For the same molecule, the “time to reach steady-state plasma concentrations” value ([4]; oral, repeated dosing b.i.d. or t.i.d., healthy subjects) was no more than 3 days, the “dose-proportionality of Cmax (maximum conc.)” value ([4]; with respect to dose per intake) was “dose-proportional” and the hygroscopicity ([5]; 25° C.) was “not hygroscopic”. For the same molecule, the “loss of weight during the desorption cycle” value ([5]; 25° C.) was 1.4%, the “obtained product after ADS/DES” value ([5]; 25° C.) was “mixture of ethanolate form and hydrated form” and the “weight loss at the drying step” value [5, 9] was “about 0.6%”. The “form after the hydratation test” value [6] was “transferred into a hydrated form”, the “loss of weight at the end of the test” value [6] was 5.2% and the solubility ([7]; 5% HPβCD in water (pH = 5.8)) was 2.4 (pH = 5.8) mg/ml solution. For the same molecule, the solubility ([7]; 10% HPβCD in water (pH = 6.0)) was 6.5 (pH = 6.0) mg/ml solution, the solubility ([7]; 20% HPβCD in water (pH = 6.0)) was 17 (pH = 6.0) mg/ml solution and the solubility ([7]; 40% HPβCD in water (pH = 5.9)) was 40 (pH = 5.9) mg/ml solution. The solubility ([7]; Water (pH = 5.9)) was 0.16 (pH = 5.9) mg/ml solution, the solubility ([8]; organic solvent or mixture, 1-Methoxy-2-propanol) was 160000 to 213000 µg/mL (≈ 292 to 389 mM) and the solubility ([8]; organic solvent or mixture, 2-Propanol) was less than 3400 µg/mL. The solubility ([8]; organic solvent or mixture, Acetone) was 106000 to 211000 µg/mL (≈ 194 to 385 mM), the solubility ([8]; organic solvent or mixture, Dichloromethane) was 105000 to 209000 µg/mL (≈ 192 to 382 mM) and the solubility ([8]; organic solvent or mixture, Ethanol absolute) was less than 3400 µg/mL. It also gave a solubility ([8]; organic solvent or mixture, Ethylacetate) of 71000 to 107000 µg/mL (≈ 130 to 195 mM), a solubility ([8]; organic solvent or mixture, Ethylmethylketone) of 102000 to 204000 µg/mL (≈ 186 to 372 mM) and a solubility ([8]; organic solvent or mixture, Heptane) of less than 3400 µg/mL. It also gave a solubility ([8]; organic solvent or mixture, Isopropylether) of less than 3400 µg/mL, a solubility ([8]; organic solvent or mixture, Methacyanate) greater than 200000 µg/mL and a solubility ([8]; organic solvent or mixture, Methanol) of less than 3400 µg/mL. For the same molecule, the solubility ([8]; organic solvent or mixture, Tetrahydrofurane) was 102000 to 203000 µg/mL (≈ 186 to 371 mM), the solubility ([8]; organic solvent or mixture, Toluene) was less than 3500 µg/mL and the solubility ([8]; water) was less than 3500 µg/mL.

For `CC(C)CN(C[C@@H](O)[C@H](Cc1ccccc1)NC(=O)O[C@H]1CO[C@H]2OCC[C@H]21)S(=O)(=O)c1ccc(N)cc1` [Form B, (3R,3aS,6aR)-hexahydrofuro [2,3-b] furan-3-yl (1S,2R)-3-[[(4-aminophenyl)sulfonyl] (isobutyl)amino]-1-benzyl-2-hydroxypropylcarbamate], the solubility ([2]; 0.1N HCl (pH 1.1), at least 24 hours) was 150 (pH 1.1) mg/100 ml solution, the solubility ([2]; Buffer pH 2 (citrate/HCl) (pH 2.0), at least 24 hours) was 23 (pH 2.0) mg/100 ml solution and the solubility ([2]; Buffer pH 3 (citrate/HCl) (pH 3.0), at least 24 hours) was 13 (pH 3.0) mg/100 ml solution. The solubility ([2]; Buffer pH 4 (citrate/HCl) (pH 4.0), at least 24 hours) was 12 (pH 4.0) mg/100 ml solution, the solubility thermodynamic ([2]; pH 0.14, aqueous buffer, 1.0N HCl (pH 0.14), at least 24 hours) was 5100 µg/mL (≈ 9.31 mM) and the solubility thermodynamic ([2]; pH 5.1, water, Water (pH 5.1), at least 24 hours) was 100 µg/mL (≈ 0.183 mM). For the same molecule, the hygroscopicity ([5]; 25° C.) was “hygroscopic”, the “obtained product after ADS/DES” value ([5]; 25° C.) was “mixture of hydrate and amorphous product” and the “water remained on the sample after the desorption cycle” value ([5]; 25° C.) was “about 1.2%”. The “weight loss at the drying step” value [5, 9] was “about 5.6%”.

For `CC(C)CN(C[C@@H](O)[C@H](Cc1ccccc1)NC(=O)O[C@H]1CO[C@H]2OCC[C@H]21)S(=O)(=O)c1ccc(N)cc1` [Form K, (3R,3aS,6aR)-hexahydrofuro [2,3-b] furan-3-yl (1S,2R)-3-[[(4-aminophenyl)sulfonyl] (isobutyl)amino]-1-benzyl-2-hydroxypropylcarbamate], the solubility ([2]; 20% HPβCD in water (pH 1.6), at least 48 hours) was 2100 (pH 1.6) mg/100 ml solution, the solubility thermodynamic ([2]; pH 2, aqueous buffer, 0.01N HCl (pH 2.0), at least 48 hours) was 240 µg/mL (≈ 0.438 mM) and the solubility thermodynamic ([2]; pH 2, aqueous buffer, Buffer pH 2 (citrate/HCl) (pH 2.0), at least 48 hours) was 210 µg/mL (≈ 0.383 mM). It also gave a solubility thermodynamic ([2]; pH 3, aqueous buffer, Buffer pH 3 (citrate/HCl) (pH 3.0), at least 48 hours) of 120 µg/mL (≈ 0.219 mM), a solubility thermodynamic ([2]; pH 3.3, water, Water (pH 3.3), at least 48 hours) of 190 µg/mL (≈ 0.347 mM) and a solubility thermodynamic ([2]; pH 4, aqueous buffer, Buffer pH 4 (citrate/HCl) (pH 4.0), at least 48 hours) of 110 µg/mL (≈ 0.201 mM). The hygroscopicity ([5]; 25° C.) was “hygroscopic”, the “drying of the product during the desorption cycle” value ([5]; 25° C., about 21 mg, FIG. 25) was “dried completely” and the “weight loss at the drying step” value ([5]; different study, about 18 mg of the mesylate solvate, FIG. 26) was “about 0.6%”. The “drying of the product during the desorption cycle” value [5, 10] was “dried completely”, the hygroscopicity [5, 10] was “slightly hygroscopic” and the “weight loss at the drying step” value [5, 9] was 0.3%.
